23 molecules from US20240228463A1, “SODIUM CHANNEL INHIBITORS AND METHODS OF DESIGNING SAME” (Genentech, Inc., priority 2021, published 2024) can be followed below.

pIC50: −log10 of the molar value. Counter-ions that a name gives are not always drawn.

The experiment deals with T1, hNaV1.7 (Homo sapiens, UniProt Q15858).
T1 construct: expressed in transfected cells
T1 sequence (Q15858 1-1977 isoform Q15858-3): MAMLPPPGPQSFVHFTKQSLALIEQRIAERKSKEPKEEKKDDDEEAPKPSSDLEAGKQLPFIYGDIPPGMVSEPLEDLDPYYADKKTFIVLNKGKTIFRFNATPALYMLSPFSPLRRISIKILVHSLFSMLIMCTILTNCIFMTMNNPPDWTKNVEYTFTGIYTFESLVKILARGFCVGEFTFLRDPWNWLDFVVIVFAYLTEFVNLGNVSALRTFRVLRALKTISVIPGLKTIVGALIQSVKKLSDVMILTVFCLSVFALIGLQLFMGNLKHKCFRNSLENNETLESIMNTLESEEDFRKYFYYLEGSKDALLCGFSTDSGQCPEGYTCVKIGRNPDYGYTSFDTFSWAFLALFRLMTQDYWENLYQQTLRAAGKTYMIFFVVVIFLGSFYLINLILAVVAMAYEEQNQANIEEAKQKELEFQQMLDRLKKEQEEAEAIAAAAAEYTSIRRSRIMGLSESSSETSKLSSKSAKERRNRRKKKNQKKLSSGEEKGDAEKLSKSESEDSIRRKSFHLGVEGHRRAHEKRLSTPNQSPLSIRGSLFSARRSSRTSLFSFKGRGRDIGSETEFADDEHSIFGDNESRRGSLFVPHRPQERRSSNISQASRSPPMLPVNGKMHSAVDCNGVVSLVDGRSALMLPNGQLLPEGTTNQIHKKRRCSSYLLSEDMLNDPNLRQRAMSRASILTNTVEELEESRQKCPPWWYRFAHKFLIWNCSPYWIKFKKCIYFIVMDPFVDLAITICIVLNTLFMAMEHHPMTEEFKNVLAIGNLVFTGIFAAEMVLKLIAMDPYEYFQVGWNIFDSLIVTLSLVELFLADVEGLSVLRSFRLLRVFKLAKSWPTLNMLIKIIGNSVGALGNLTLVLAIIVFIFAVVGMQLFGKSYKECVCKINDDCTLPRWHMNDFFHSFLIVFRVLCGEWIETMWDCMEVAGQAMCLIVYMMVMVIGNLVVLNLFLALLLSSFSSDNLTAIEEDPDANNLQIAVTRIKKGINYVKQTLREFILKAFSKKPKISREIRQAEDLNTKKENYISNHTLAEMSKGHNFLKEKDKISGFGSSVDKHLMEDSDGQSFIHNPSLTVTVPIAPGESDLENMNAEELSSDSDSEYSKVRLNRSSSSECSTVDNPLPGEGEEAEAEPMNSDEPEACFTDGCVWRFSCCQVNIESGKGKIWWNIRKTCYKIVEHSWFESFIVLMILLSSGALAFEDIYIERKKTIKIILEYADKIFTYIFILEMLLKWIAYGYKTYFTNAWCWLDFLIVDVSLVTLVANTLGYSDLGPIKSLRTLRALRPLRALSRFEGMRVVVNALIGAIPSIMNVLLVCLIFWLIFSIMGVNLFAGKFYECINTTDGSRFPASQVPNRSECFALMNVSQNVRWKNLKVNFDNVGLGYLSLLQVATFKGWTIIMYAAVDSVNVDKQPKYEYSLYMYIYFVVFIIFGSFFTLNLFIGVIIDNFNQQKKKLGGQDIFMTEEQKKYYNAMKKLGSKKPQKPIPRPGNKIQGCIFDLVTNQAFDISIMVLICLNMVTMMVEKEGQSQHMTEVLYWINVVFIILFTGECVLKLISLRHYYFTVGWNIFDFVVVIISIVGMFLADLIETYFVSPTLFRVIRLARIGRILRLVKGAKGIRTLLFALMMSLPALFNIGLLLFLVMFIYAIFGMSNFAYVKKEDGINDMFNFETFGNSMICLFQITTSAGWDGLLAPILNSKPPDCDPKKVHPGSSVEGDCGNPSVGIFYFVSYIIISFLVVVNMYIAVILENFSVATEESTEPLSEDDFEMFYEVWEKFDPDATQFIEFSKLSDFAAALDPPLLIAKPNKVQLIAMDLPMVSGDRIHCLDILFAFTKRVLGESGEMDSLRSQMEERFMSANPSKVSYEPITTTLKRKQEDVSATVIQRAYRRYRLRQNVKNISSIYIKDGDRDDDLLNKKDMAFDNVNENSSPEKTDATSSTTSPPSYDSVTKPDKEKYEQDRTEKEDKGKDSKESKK
In words: Patch voltage clamp electrophysiology (EP), Syncropatch 384PE, Nav1.7 in CHO cells.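 Note: Nav1.7 stably expressed from cDNA in CHO cells, holding potential of −50 mV kept for the entire experiment.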 The format is cell-based. The conditions noted are these: holding potential −50 mV, inhibition based on 7.5 min compound incubation, read-out: hNaV1.7 EP_SP.
For `CN(C)[C@H]1CCCC[C@@H]1Nc1ccc(S(=O)(=O)NC(=O)c2cc(Cl)c(OCC3CCCC3)cc2F)cc1` [Example 64, 5-chloro-4-(cyclopentylmethoxy)-N-((4-(((1S,2S)-2-(dimethylamino)-cyclohexyl)amino)phenyl)sulfonyl)-2-fluorobenzamide formate], the pIC50 is 6.54. The figure for `O=C(NS(=O)(=O)c1ccc2c(c1)OCCO2)c1cc(Cl)c(OCC2CCCC2)cc1F` [Example 281, 5-chloro-4-(cyclopentylmethoxy)-N-((2,3-dihydrobenzo[b][1,4]dioxin-6-yl)sulfonyl)-2-fluorobenzamide] is 6.49. The figure for `O=C(NS(=O)(=O)c1ccc2c(c1)CCCC2)c1cc(Cl)c(OCC2CCCC2)cc1F` [Example 261, 5-chloro-4-(cyclopentylmethoxy)-2-fluoro-N-((5,6,7,8-tetrahydronaphthalen-2-yl)sulfonyl)benzamide] is 6.28; for `O=C(NS(=O)(=O)N1CCC(OC2CN(CC(F)(F)F)C2)CC1)c1cc(Cl)c(OCC2CCCC2)cc1F` [Example 13, 5-chloro-4-(cyclopentylmethoxy)-2-fluoro-N-((4-((1-(2,2,2-trifluoroethyl)azetidin-3-yl)oxy)piperidin-1-yl)sulfonyl)benzamide] it is 6.62. The figure for `CN(C)[C@H]1CCCC[C@@H]1Nc1cc(F)c(S(=O)(=O)Nc2ccc(OCCC3(C(F)(F)F)CC3)cn2)cc1Cl` [Example 101, 5-chloro-4-(((1S,2S)-2-(dimethylamino)cyclohexyl)amino)-2-fluoro-N-(5-(2-(1-(trifluoromethyl)cyclopropyl)ethoxy)pyridin-2-yl)benzenesulfonamide] is 6.32.

Turning to `CN(C)[C@H]1CCCC[C@@H]1Oc1ccc(S(=O)(=O)Nc2nc3ccc(OCC4CCCC4)cc3s2)c(F)c1` [Example 97, N-(6-(cyclopentylmethoxy)benzo[d]thiazol-2-yl)-4-(((1S,2S)-2-(dimethyl-amino)cyclohexyl)oxy)-2-fluorobenzenesulfonamide], the pIC50 is 7.70.

Consider `NCc1cccc(COc2ccc(S(=O)(=O)NC(=O)c3cc(Cl)c(OCC4CCCC4)cc3F)cc2)c1` [Example 300, N-((4-((3-(aminomethyl)benzyl)oxy)phenyl)sulfonyl)-5-chloro-4-(cyclopentylmethoxy)-2-fluorobenzamide], for which the pIC50 is 8.49. The figure for `CN(C)[C@H]1CCCC[C@@H]1Nc1cc(F)c(S(=O)(=O)NC(=O)c2cc(C3CC3)c(OCC3CCCC3)cc2F)c(F)c1` [Example 204, 4-(cyclopentylmethoxy)-5-cyclopropyl-N-((4-(((1S,2S)-2-(dimethylamino)cyclohexyl)amino)-2,6-difluorophenyl)sulfonyl)-2-fluorobenzamide] is 8.00. Turning to `O=C(NS(=O)(=O)c1ccc(F)c2ncccc12)c1cc(Cl)c(OCC2CCCC2)cc1F` [Example 279, 5-chloro-4-(cyclopentylmethoxy)-2-fluoro-N-((8-fluoroquinolin-5-yl)sulfonyl)benzamide], the pIC50 is 6.30. Regarding `COc1cc(C(=O)NS(=O)(=O)N2CCC(OC3CN(C)C3)CC2)c(F)cc1OCC1CCCC1` [Example 6, 4-(cyclopentylmethoxy)-2-fluoro-5-methoxy-N-((4-((1-methylazetidin-3-yl)oxy)piperidin-1-yl)sulfonyl) benzamide], the pIC50 was 6.49. On to `O=C(NS(=O)(=O)c1ccc(OC(F)(F)F)cc1Cl)c1cc(Cl)c(OCC2CCCC2)cc1F` [Example 293, 5-chloro-N-((2-chloro-4-(trifluoromethoxy)phenyl)sulfonyl)-4-(cyclopentylmethoxy)-2-fluorobenzamide], for which the pIC50 was 6.07. The figure for `N#Cc1ccc(S(=O)(=O)NC(=O)c2cc(Cl)c(OCC3CCCC3)cc2F)cc1C(F)(F)F` [Example 280, 5-chloro-N-((4-cyano-3-(trifluoromethyl)phenyl)sulfonyl)-4-(cyclopentylmethoxy)-2-fluorobenzamide] is 6.15. `COc1cccc(S(=O)(=O)NC(=O)c2cc(Cl)c(OCC3CCCC3)cc2F)c1` [Example 245, 5-chloro-4-(cyclopentylmethoxy)-2-fluoro-N-((3-methoxyphenyl)sulfonyl)benzamide]: the pIC50 was 6.16. In the case of `CN(C)[C@H]1CCCC[C@@H]1Nc1cc(F)c(S(=O)(=O)Nc2ccc(OCCCc3ccc(C(F)(F)F)cc3)cn2)cc1Cl` [Example 103, 5-chloro-4-(((1S,2S)-2-(dimethylamino)cyclohexyl)amino)-2-fluoro-N-(5-(3-(4-(trifluoromethyl)phenyl)propoxy)pyridin-2-yl) benzenesulfonamide], the pIC50 is 6.66.

On to `CN(C)C1CCCN(c2ccc(S(=O)(=O)NC(=O)c3cc(Cl)c(OCC4CCCC4)cc3F)c(F)c2)C1` (centres unmarked) [Example 205, 5-chloro-4-(cyclopentylmethoxy)-N-((4-(3-(dimethylamino)piperidin-1-yl)-2-fluorophenyl)sulfonyl)-2-fluorobenzamide], for which the pIC50 was 7.41.

Turning to `O=C(NS(=O)(=O)N1CCCc2cccnc21)c1cc(Cl)c(OCC2CCCC2)cc1F` [Example 15, 5-chloro-4-(cyclopentylmethoxy)-N-((3,4-dihydro-1,8-naphthyridin-1(2H)-yl)sulfonyl)-2-fluorobenzamide], the pIC50 was 6.96. The figure for `Cc1csc(S(=O)(=O)NC(=O)c2cc(Cl)c(OCC3CCCC3)cc2F)c1` [Example 252, 5-chloro-4-(cyclopentylmethoxy)-2-fluoro-N-((4-methylthiophen-2-yl)sulfonyl)benzamide] is 6.96; for `Cc1ccccc1S(=O)(=O)NC(=O)c1cc(Cl)c(OCC2CCCC2)cc1F` [Example 242, 5-chloro-4-(cyclopentylmethoxy)-2-fluoro-N-(o-tolylsulfonyl)benzamide] it is 6.96. The figure for `Cn1cc(COc2ccc(S(=O)(=O)NC(=O)c3cc(Cl)c(OCC4CCCC4)cc3F)cc2)cn1` [Example 299, 5-chloro-4-(cyclopentylmethoxy)-2-fluoro-N-((4-((1-methyl-1H-pyrazol-4-yl)methoxy)phenyl)sulfonyl)benzamide] is 7.42; for `O=C(NS(=O)(=O)N1CCN2CCNCC2C1)c1cc(Cl)c(OCC2CCCC2)cc1F` (centres unmarked) [Example 23, 5-chloro-4-(cyclopentylmethoxy)-2-fluoro-N-((octahydro-2H-pyrazino[1,2-a]pyrazin-2-yl)sulfonyl)benzamide] it is 6.96. As for `O=C(NS(=O)(=O)N1CC[C@@H]2CN[C@@H]2C1)c1cc(Cl)c(OCC2CCCC2)cc1F` [Example 231, N-((1S,6R)-3,8-diazabicyclo[4.2.0]octan-3-ylsulfonyl)-5-chloro-4-(cyclopentylmethoxy)-2-fluorobenzamide 2,2,2-trifluoroacetate], the pIC50 is 6.37.

As for `CN1CC(OC2CCN(S(=O)(=O)NC(=O)c3cc(C4CC4)c(OCC4CCCC4)cc3F)CC2)C1` [Example 4, 4-(cyclopentylmethoxy)-5-cyclopropyl-2-fluoro-N-((4-((1-methylazetidin-3-yl)oxy)piperidin-1-yl)sulfonyl) benzamide], the pIC50 was 7.82. For `CNC1CN(S(=O)(=O)NC(=O)c2cc(Cl)c(OCC3CCCC3)cc2F)C1` [Example 226, 5-chloro-4-(cyclopentylmethoxy)-2-fluoro-N-((3-(methylamino)azetidin-1-yl)sulfonyl)benzamide formate], the pIC50 is 6.12.
